Experimental data from patent publication US20240218023A1, “CYCLIC PEPTIDE-N-ACETYLGALACTOSAMINE (GALNAC) CONJUGATES FOR DRUG DELIVERY TO LIVER CELLS” (MICROBIO (SHANGHAI) CO., LTD., priority 2021, published 2024).

Tested on: HepG2 cells
Assay: Cellular uptake / binding of FAM-labeled ligands to HepG2 cells (flow cytometry, proportion of FAM positive cells)
Format: cell-based, human
Details: for Efficiency (%) of cellular uptake (percentage of ligand-bound HepG2 cells): 24 h
Experimental: The human hepatocellular carcinoma (HepG2) cell line was purchased from Shanghai Zhong Qiao Xin Zhou Biotechnology Co., Ltd. and maintained in minimum essential medium (Gibco, ThermoFisher Scientific, USA) with 10% fetal bovine serum (Gibco, ThermoFisher Scientific, USA), 200 units/mL penicillin plus 200 units/mL streptomycin at 37° C. with 5% CO2.
Cells were seeded in 24-well plates with a density of 1.5×10^5 cells per well and incubated under 37° C., 5% CO2. After 18 h of incubation, media were replaced to MEM with 2% FBS and FAM-labeled ligands were added with final concentrations of 1.6, 8, 40 or 200 nM. After 24 h of incubation, cells were washed twice with 1×PBS and analyzed by LSRFortessa (BD Biosciences, NJ, USA). The binding efficiency was evaluated by the proportion of FAM positive cells.
HepG2 cell was treated by 14 cyclic peptide-tri-GalNAc ligand variants with serial diluted concentration of 1.6, 8, 40 or 200 nM. Commercialized tri-GalNAc used in Givosirna was used as positive control and cyclic peptide w/o tri-GalNAc was negative control. […] Equilibrium dissociation constant (kd) for 5-FAM-CPMB-0013 (ID013), 5-FAM-CPMB-0023 (ID023), 5-FAM-CPMB-0035 (ID035) and commercialized tri-GalNAC were 7.0, 8.6, 5.7 and 18 nM, respectively.

| Substance | Efficiency (%) of cellular uptake (percentage of ligand-bound HepG2 cells) (1.6 nM ligand, HepG2) | Efficiency (%) of cellular uptake (percentage of ligand-bound HepG2 cells) (8 nM ligand, HepG2) | Efficiency (%) of cellular uptake (percentage of ligand-bound HepG2 cells) (40 nM ligand, HepG2) | Efficiency (%) of cellular uptake (percentage of ligand-bound HepG2 cells) (200 nM ligand, HepG2) | Kd (HepG2 cells, read-out: Equilibrium dissociation constant (kd)) | binding ability as compared to others and commercialized tri-GalNAc (among 14 variants, HepG2) |
| --- | --- | --- | --- | --- | --- | --- |
| 5-FAM-CPMB-0313: CPS-031 cyclic peptide scaffold, Gal-3 GalNAc linker, 5-FAM label; FIG. 14N (KEKAKA; cyclised or stapled) | 3.0% | 24.6% | 73.2% | 95.1% |  |  |
| 5-FAM-CPMB-0011: CPS-001 cyclic peptide scaffold, Gal-1 GalNAc linker, 5-FAM label; FIG. 14A (KEKGKG; cyclised or stapled) | 3.0% | 20.1% | 67.7% | 94.2% |  |  |
| 5-FAM-CPMB-0031-Ac: negative control, cyclic peptide w/o tri-GalNAc; CPS-003, Gal-1; FIG. 14R (KEKGKG; D-residues; cyclised or stapled) [reference compound] | 0.1% | 0.1% | 0.2% | 0.4% |  |  |
| 5-FAM-CPMB-0015: CPS-001 cyclic peptide scaffold, Gal-5 GalNAc linker, 5-FAM label; FIG. 14E (KEKGKG; cyclised or stapled) | 16.3% | 36.3% | 89.6% | 99% |  |  |
| 5-FAM-CPMB-0311: CPS-031 cyclic peptide scaffold, Gal-1 GalNAc linker, 5-FAM label; FIG. 14M (KEKAKA; cyclised or stapled) | 3.1% | 20.8% | 68.8% | 93.3% |  |  |
| 5-FAM-CPMB-0035: CPS-003 cyclic peptide scaffold, Gal-5 GalNAc linker, 5-FAM label; FIG. 14L (KEKGKG; D-residues; cyclised or stapled) | 11.1% | 63.2% | 95.2% | 99.5% | 5.7 nM | relatively higher binding ability |
| 5-FAM-CPMB-0033: CPS-003 cyclic peptide scaffold, Gal-3 GalNAc linker, 5-FAM label; FIG. 14J (KEKGKG; D-residues; cyclised or stapled) | 5.3% | 34.5% | 82.9% | 98.2% |  |  |
| 5-FAM-CPMB-0025: CPS-002 cyclic peptide scaffold, Gal-5 GalNAc linker, 5-FAM label; FIG. 14H (KEKGKG; D-residues; cyclised or stapled) | 1.6% | 30% | 83.1% | 98.2% |  |  |
| 5-FAM-CPMB-0012: CPS-001 cyclic peptide scaffold, Gal-2 GalNAc linker, 5-FAM label; FIG. 14B (KEKGKG; not fully specified; cyclised or stapled) | 1.2% | 19.6% | 74.2% | 95.9% |  |  |
